The values below come from patent US10231967B2, “Compounds and their use as BACE inhibitors” (ASTRAZENECA AB, priority 2010, dated 2019).

As usually defined, the IC50 is the concentration that gives 50% inhibition.

One assay has as its system sAPPβ release in SH-SY5Y cells. As to the kind of experiment: sAPPβ release assay. The class given is cell-based. Conditions: Homo sapiens, SH-SY5Y, 17 h, compounds incubated 17 h, MSD detection. As for the experimental part: Thaw cells and seed at a conc. of around 10000 cells/well in DMEM/F-12 with Glutamax, 10% FCS and 1% non-essential amino acids to a 384-well tissue culture treated plate, 100 μL cell susp/well. […] The cell medium was removed, followed by addition of 30 μL compound diluted in DMEM/F-12 with Glutamax, 10% FCS, 1% non-essential amino acids and 1% PeSt to a final conc. of 1% DMSO. The compounds were incubated with the cells for 17 h (overnight) at 37° C., 5% CO2. Meso Scale Discovery (MSD) plates were used for the detection of sAPPβ release. MSD sAPPβ plates were blocked in 1% BSA in Tris wash buffer (40 μL/well) for 1 h on shake at r.t. and washed 1 time in Tris wash buffer (40 μL/well). 20 μL of medium was transferred to the pre-blocked and washed MSD sAPPβ microplates, and the cell plates were further used in an ATP assay to measure cytotoxicity. The MSD plates were incubated with shaking at r.t. for 2 h and the media discarded. 10 μL detection antibody was added (1 nM) per well followed by incubation with shaking at r.t. for 2 h and then discarded. 40 μL Read Buffer was added per well and the plates were read in a SECTOR Imager.
The compound `COC1CCC2(CC1)Cc1ccc(Br)cc1[C@@]21N=C(C)C(N)=N1` (single isomer, unassigned) [Example 19 Isomer 1] returned a concentration for half-maximal inhibition (IC50) of 18 nM.

`CC1=NC2(CC(C3CCCOC3)Oc3ccc(Br)cc32)N=C1N` (single isomer, unassigned) [Example 47 Isomer 2, 6-Bromo-5′-methyl-2-(tetrahydro-2H-pyran-3-yl)spiro[chromane-4,2′-imidazole]-4′-amine] returned an IC50 of 657 nM.

As to `CC1=NC2(CCOc3ccc(NC(=O)c4ccc(Cl)cn4)cc32)N=C1N` (stereo not shown) [Example 13a, N-(4′-Amino-5′-methylspiro[chroman-4,2′-imidazole]-6-yl)-5-chloropicolinamide], the IC50 came to 501 nM.

In turn, `CC1=NC2(CCOc3ccc(NC(=O)c4ncc(Cl)cc4Cl)cc32)N=C1N` (stereo not shown) [Example 13i, N-(4′-Amino-5′-methylspiro[chroman-4,2′-imidazole]-6-yl)-3,5-dichloropicolinamide] registered an IC50 of 160 nM.

With `CO[C@H]1CC[C@]2(CC1)Cc1ccc(C#CC(C)(C)C)cc1C21N=C(C)C(N)=N1` (stereo partly shown) [Example 20h], the IC50 came out at 7.1 nM.

`CO[C@H]1CC[C@]2(CC1)Cc1ccc(NC(=O)c3ccc(C(F)(F)F)cn3)cc1C21N=C(C)C(N)=N1` (stereo partly shown) [Example 20k, N-[(1r,4r)-4″-Amino-4-methoxy-5″-methyl-3′H-dispiro[cyclohexane-1,2′-indene-1′,2″-imidazol]-6′-yl]-5-(trifluoromethyl)pyridine-2-carboxamide] had an IC50 of 8.6 nM.

Compound `CO[C@H]1CC[C@]2(CC1)Cc1ccc(NC(=O)c3ncc(Cl)cc3Cl)cc1C21N=C(C)C(N)=N1` (stereo partly shown) [Example 20o, N-[(1r,4r)-4″-Amino-4-methoxy-5″-methyl-3′H-dispiro[cyclohexane-1,2′-indene-1′,2″-imidazol]-6′-yl]-3,5-dichloropyridine-2-carboxamide] gave an IC50 of 9.2 nM.

`CO[C@H]1CC[C@]2(CC1)Cc1ccc(NC(=O)c3ccc(Cl)cn3)cc1C21N=C(C)C(N)=N1` (stereo partly shown) [Example 20q, N-[(1r,4r)-4″-Amino-4-methoxy-5″-methyl-3′H-dispiro[cyclohexane-1,2′-indene-1′,2″-imidazol]-6′-yl]-5-chloropyridine-2-carboxamide] had an IC50 of 3.8 nM.

Take `CO[C@H]1CC[C@]2(CC1)Cc1ccc(OCCC(F)(F)F)cc1C21N=C(C)C(N)=N1` (stereo partly shown) [Example 20u, (1r,4r)-4-methoxy-5″-methyl-6′-(3,3,3-trifluoropropoxy)-3′H-dispiro[cyclohexane-1,2′-indene-1′,2″-imidazol]-4″-amine]: inhibition was half-maximal at 0.63 nM (IC50).

The same assay, now with this note: Homo sapiens, compounds incubated 17 h, MSD detection.
`CC1=N[C@]2(N=C1N)c1cc(-c3cc(F)cc(C#N)c3)ccc1C[C@]21CC[C@@H](OC(F)F)CC1` (racemic) [Example 105, 3-[(1r,4r)-4″-Amino-4-(difluoromethoxy)-5″-methyl-3′H-dispiro[cyclohexane-1,2′-indene-1′,2″-imidazol]-6′-yl]-5-fluorobenzonitrile] came in with an IC50 of 9.7 nM.

As for `COc1cc(C#N)cc(-c2ccc3c(c2)[C@@]2(N=C(C)C(N)=N2)[C@]2(CC[C@H](OC(F)F)CC2)C3)c1` (racemic) [Example 106, 3-[(1r,4r)-4″-Amino-4-(difluoromethoxy)-5″-methyl-3′H-dispiro[cyclohexane-1,2′-indene-1′,2″-imidazol]-6′-yl]-5-methoxybenzonitrile], the IC50 was found to be 1.1 nM.

Take `COc1cc(C#N)cc(-c2ccc3c(c2)[C@@]2(N=C(C)C(N)=N2)[C@]2(CC[C@H](OC)CC2)C3)c1` (single isomer, unassigned) [Example 92 Isomer 1]: half-maximal inhibition (IC50) required 0.27 nM.

The compound `CC1=NC2(CCOc3ccc(-c4cc(Cl)cc(Cl)c4)cc32)N=C1N` (stereo not shown) [Example 1, 6-(3,5-Dichlorophenyl)-5′-methylspiro[chroman-4,2′-imidazol]-4′-amine] displayed an IC50 of 587 nM.

`CC1=NC2(CCOc3ccc(-c4cncc(Cl)c4)cc32)N=C1N` (stereo not shown) [Example 2, 6-(5-Chloropyridin-3-yl)-5′-methylspiro[chroman-4,2′-imidazol]-4′-amine]: 941 nM corresponded to half-maximal inhibition (IC50).

Regarding `CC1=NC2(CCOc3ccc(-c4cc(F)cc(F)c4)cc32)N=C1N` (stereo not shown) [Example 3, 6-(3,5-Difluorophenyl)-5′-methylspiro[chroman-4,2′-imidazol]-4′-amine], it took 2880 nM to reach half-maximal inhibition (IC50).

The compound `CC1=NC2(CCOc3ccc(NC(=O)c4ccc(C(F)(F)F)cn4)cc32)N=C1N` (stereo not shown) [Example 13c, N-(4′-Amino-5′-methylspiro[chroman-4,2′-imidazole]-6-yl)-5-(trifluoromethyl)picolinamide] had a 50% inhibitory concentration (IC50) of 463 nM.

In the case of `CC#CCOc1ccc(C(=O)Nc2ccc3c(c2)C2(CCO3)N=C(C)C(N)=N2)nc1` (stereo not shown) [Example 13d, N-(4′-amino-5′-methylspiro[chroman-4,2′-imidazole]-6-yl)-5-(but-2-ynyloxy)picolinamide], it took 239 nM to reach half-maximal inhibition (IC50).

On to `CC#CCOc1cnc(C(=O)Nc2ccc3c(c2)C2(CCO3)N=C(C)C(N)=N2)cn1` (stereo not shown) [Example 13e, N-(4′-Amino-5′-methylspiro[chroman-4,2′-imidazole]-6-yl)-5-(but-2-ynyloxy)pyrazine-2-carboxamide], for which the IC50 came to 106 nM.

`CC1=NC2(N=C1N)c1cc(Br)ccc1CC21CCC(OC(F)F)CC1` (stereo not shown) [Example 15, 6′-Bromo-4-(difluoromethoxy)-5″-methyl-3′H-dispiro[cyclohexane-1,2′-indene-1′,2″-imidazol]-4″-amine] showed an IC50 of 46 nM.

For the compound `CC#Cc1ccnc(-c2ccc3c(c2)C2(N=C(C)C(N)=N2)[C@]2(CC[C@H](OC)CC2)C3)c1` (stereo partly shown) [Example 20b, (1r,4r)-4-Methoxy-5″-methyl-6′-[4-(prop-1-yn-1-yl)pyridin-2-yl]-3′H-dispiro[cyclohexane-1,2′-indene-1′,2″-imidazol]-4″-amine], the IC50 amounted to 0.78 nM.

Compound `CO[C@H]1CC[C@]2(CC1)Cc1ccc(-c3cc(C#N)cc(C#N)c3)cc1C21N=C(C)C(N)=N1` (stereo partly shown) [Example 20c, 5-[(1r,4r)-4″-Amino-4-methoxy-5″-methyl-3′H-dispiro[cyclohexane-1,2′-indene-1′,2″-imidazol]-6′-yl]benzene-1,3-dicarbonitrile] displayed an IC50 of 1.7 nM.

On to `CO[C@H]1CC[C@]2(CC1)Cc1ccc(-c3cncc(F)c3)cc1C21N=C(C)C(N)=N1` (stereo partly shown) [Example 20f, (1r,4r)-6′-(5-Fluoropyridin-3-yl)-4-methoxy-5″-methyl-3′H-dispiro[cyclohexane-1,2′-indene-1′,2″-imidazol]-4″-amine], for which the IC50 was determined as 3.3 nM.

With `CO[C@H]1CC[C@]2(CC1)Cc1ccc(NC(=O)c3ncc(Br)cn3)cc1C21N=C(C)C(N)=N1` (stereo partly shown) [Example 20j, N-[(1r,4r)-4″-Amino-4-methoxy-5″-methyl-3′H-dispiro[cyclohexane-1,2′-indene-1′,2″-imidazol]-6′-yl]-5-bromopyrimidine-2-carboxamide], the IC50 came to 91 nM.

On to `CO[C@H]1CC[C@]2(CC1)Cc1ccc(NC(=O)c3oc4cc(Cl)ccc4c3C)cc1C21N=C(C)C(N)=N1` (stereo partly shown) [Example 20n, N-[(1r,4r)-4″-Amino-4-methoxy-5″-methyl-3′H-dispiro[cyclohexane-1,2′-indene-1′,2″-imidazol]-6′-yl]-6-chloro-3-methyl-1-benzofuran-2-carboxamide], for which half-maximal inhibition (IC50) required 3.7 nM.

The compound `CO[C@H]1CC[C@]2(CC1)Cc1ccc(OCCCF)cc1C21N=C(C)C(N)=N1` (stereo partly shown) [Example 20v] came in with an IC50 of 1.2 nM.
